The source made the active and inactive calls. The calls are words filed in the database; no cut-off is given here.
How the values were obtained:
[1] = system: NCI-H460; test: Cytotoxicity against human NCI-H460 cells assessed as inhibition of cell proliferation/survival after 72 hrs by resazurin dye reduction assay; type: functional, cell-based; settings: NCI-H460, 72 h
[2] = system: LNCaP; test: Cytotoxicity against human LNCAP cells assessed as inhibition of cell proliferation/survival after 72 hrs by resazurin dye reduction assay; type: functional, cell-based
[3] = system: HFF; test: Cytotoxicity against HFF assessed as inhibition of cell proliferation/survival after 72 hrs by resazurin dye reduction assay; type: cell-based; settings: Homo sapiens
[4] = target: T1, Androgen receptor (Homo sapiens, UniProt P10275); test: Inhibition of androgen receptor in human LNCAP cells assessed as inhibition of DHT-induced KLK3 gene expression by Array Plate assay; type: cell-based
T1 sequence (P10275 whole entry): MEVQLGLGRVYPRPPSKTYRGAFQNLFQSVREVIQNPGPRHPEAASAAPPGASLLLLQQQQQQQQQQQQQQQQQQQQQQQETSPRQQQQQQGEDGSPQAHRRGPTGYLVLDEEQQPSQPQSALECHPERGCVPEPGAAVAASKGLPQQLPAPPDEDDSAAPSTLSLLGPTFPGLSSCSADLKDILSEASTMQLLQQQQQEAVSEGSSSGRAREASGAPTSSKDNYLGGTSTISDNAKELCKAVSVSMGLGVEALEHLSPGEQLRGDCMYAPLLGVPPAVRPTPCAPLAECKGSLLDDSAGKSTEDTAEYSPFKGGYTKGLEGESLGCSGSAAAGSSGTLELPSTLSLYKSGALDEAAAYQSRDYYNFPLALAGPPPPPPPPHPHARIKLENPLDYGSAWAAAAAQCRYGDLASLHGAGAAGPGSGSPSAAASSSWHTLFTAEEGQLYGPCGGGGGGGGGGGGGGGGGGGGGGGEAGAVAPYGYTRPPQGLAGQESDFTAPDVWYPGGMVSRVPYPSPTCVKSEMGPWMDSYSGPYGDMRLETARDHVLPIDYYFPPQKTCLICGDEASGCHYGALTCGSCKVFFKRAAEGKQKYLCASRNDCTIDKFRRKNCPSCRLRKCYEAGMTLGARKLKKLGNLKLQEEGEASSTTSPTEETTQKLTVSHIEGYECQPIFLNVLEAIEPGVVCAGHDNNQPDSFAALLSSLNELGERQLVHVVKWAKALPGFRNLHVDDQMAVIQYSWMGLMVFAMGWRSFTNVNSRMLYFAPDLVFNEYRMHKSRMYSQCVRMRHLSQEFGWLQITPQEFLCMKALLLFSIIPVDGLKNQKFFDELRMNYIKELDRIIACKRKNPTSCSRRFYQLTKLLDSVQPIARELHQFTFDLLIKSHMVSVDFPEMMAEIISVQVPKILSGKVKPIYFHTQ

[5] = system: SF-268; test: Cytotoxicity against human SF268 cells assessed as inhibition of cell proliferation/survival after 72 hrs by resazurin dye reduction assay; type: functional, cell-based; settings: SF-268, 72 h
[6] = system: PC-3; test: Cytotoxicity against human PC3 cells assessed as inhibition of cell proliferation/survival after 72 hrs by resazurin dye reduction assay; type: functional, cell-based; settings: PC-3, 72 h
[7] = target: T1, Androgen receptor; test: Inhibition of androgen receptor in human LNCAP cells assessed as inhibition of DHT-induced KLK2 gene expression by Array Plate assay; type: cell-based
[8] = target: T1, Androgen receptor; test: Inhibition of androgen receptor in human LNCAP cells assessed as inhibition of DHT-induced SPDEF gene expression by Array Plate assay; type: cell-based
[9] = system: MCF7; test: Cytotoxicity against human MCF7 cells assessed as inhibition of cell proliferation/survival after 72 hrs by resazurin dye reduction assay; type: functional, cell-based; settings: MCF7, 72 h
[10] = system: PC-3; test: Antitumor activity against human PC3 cells xenografted in SCID mouse assessed as tumor growth inhibition at 12 mg/kg, iv administered for five times per week up to two weeks measured twice per week; type: functional, organism-based
[11] = Tmax in SCID mouse at 50 mg/kg, ip; type: ADME, organism-based; settings: in vivo
[12] = system: Serum; test: Drug uptake in SCID mouse serum at 25 mg/kg, sc administered in trappsol measured after 1 hr; type: ADME, organism-based; settings: in vivo
[13] = system: Mus musculus; test: Toxicity in SCID mouse xenografted with human PC3 cells assessed as mortality at 26 to 40 mg/kg, ip for five times per week up to two weeks; type: organism-based, PC-3; settings: in vivo
[14] = system: Plasma; test: Drug uptake in SCID mouse plasma at 50 mg/kg, ip; type: ADME, organism-based; settings: in vivo
[15] = system: PC-3; test: Antitumor activity against human PC3 cells xenografted in SCID mouse assessed as tumor growth inhibition at 26 to 40 mg/kg, ip coadministered with taxotere for five times per week up to two weeks measured twice per week; type: functional, organism-based
[16] = system: Plasma; test: Drug uptake in SCID mouse plasma at 50 mg/kg administered through gastric gavage; type: ADME, organism-based; settings: in vivo, po
[17] = Toxicity in sc dosed SCID mouse administered in trappsol once per day for 5 days followed by 2 days of rest and again dose repetition; type: organism-based; settings: in vivo
[18] = system: LNCaP; test: Antitumor activity against human LNCAP cells xenografted in SCID mouse assessed as tumor growth inhibition at 15 to 25 mg/kg, sc coadministered with taxotere in trappsol for five times per week up to two weeks measured twice per week; type: functional, organism-based
[19] = system: PC-3; test: Antitumor activity against human PC3 cells xenografted in ip dosed SCID mouse assessed as tumor growth inhibition for five times per week up to two weeks measured twice per week; type: functional, organism-based
[20] = system: Mus musculus; test: Toxicity in SCID mouse xenografted with human LNCAP cells assessed as mortality at 15 to 25 mg/kg, sc administered in trappsol for five times per week up to two weeks; type: organism-based; settings: in vivo
[21] = system: LNCaP; test: Antitumor activity against human LNCAP cells xenografted in sc dosed SCID mouse assessed as tumor growth inhibition administered in trappsol for five times per week up to two weeks measured twice per week; type: functional, organism-based
[22] = Toxicity in SCID mouse assessed as change in body weight measured every 3 to 5 days up to 18 days; type: organism-based; settings: in vivo
[23] = target: T2, Androgen receptor (Homo sapiens) (UniProt P10275); test: Competitive inhibition of androgen binding to androgen receptor (unknown origin) by invitrogen polar screen assay
T2 sequence (whole entry): T1 sequence (P10275 whole entry)

[24] = system: PC-3; test: Antitumor activity against human PC3 cells xenografted in SCID mouse assessed as tumor growth inhibition at 50 mg/kg, ip qd administered for 5 days followed by 2 days rest and again dose repetition up to 30 days measured after day 30 post dose relative to vehicle-treated control; type: functional; settings: PC-3, ip, read-out: TGI

IC50 [4] [µM] | IC50 [7] [µM] | IC50 [8] [µM] | Compound | IC50 [1] [µM] | IC50 [2] [µM] | IC50 [3] [µM] | IC50 [5] [µM] | IC50 [6] [µM] | IC50 [9] [µM] | also measured
3.58 | 1.79 | 2.72 | CC(=O)OC[C@]12CC[C@H]3[C@@H](CC=C4CC=CC(=O)[C@@]43C)[C@]1(O)[C@@H](OC(C)=O)C[C@@]2(O)[C@@](C)(O)[C@H]1CC(C)=C(C)C(=O)O1 | 2 | 0.44 | > 2.8 | > 5 | 2 | > 5 | 
 |  |  | CC(=O)O[C@@]12CO[C@@H]1C[C@H](O)[C@@]1(C)C(=O)[C@H](O)C3=C(C)[C@@H](OC(=O)[C@H](O)[C@@H](NC(=O)OC(C)(C)C)c4ccccc4)C[C@@](O)([C@@H](OC(=O)c4ccccc4)[C@H]21)C3(C)C |  |  |  |  |  |  | TGI [10]: Active
 |  |  | CC(=O)OC[C@]12CC[C@H]3[C@@H](CC=C4CC=CC(=O)[C@@]43C)[C@]1(O)[C@@H](OC(C)=O)C[C@@]2(O)[C@@](C)(O)[C@H]1CC(CO)=C(C)C(=O)O1 | > 5 | 3.3 |  | > 5 | > 5 | > 5 | 
 |  |  | COc1cccc2c1C(=O)c1c(O)c3c(c(O)c1C2=O)C[C@@](O)(C(=O)CO)C[C@@H]3O[C@H]1C[C@H](N)[C@H](O)[C@H](C)O1 [DOXORUBICIN] |  |  |  | 0.45 | 0.25 | 0.32 | 
1.42 | 0.62 | 1.2 | CC(=O)OC[C@]12CC[C@H]3[C@@H](CC=C4C=CCC(=O)[C@@]43C)[C@]1(O)[C@@H](OC(C)=O)C[C@@]2(O)[C@@](C)(O)[C@H]1CC(C)=C(C)C(=O)O1 | > 5 | 2 | > 5 | > 5 | > 5 | > 5 | 
3.52 | 2.4 | 3.28 | CC(=O)OC[C@]12CC[C@H]3[C@@H](CC=C4C=CCC(=O)[C@@]43C)[C@]1(O)CC[C@@]2(O)[C@@](C)(O)[C@H]1CC(C)=C(C)C(=O)O1 | 3.9 | 1.1 | > 3.1 | > 5 | 3.1 | > 5 | 
 |  |  | CC(=O)OC[C@]12CC[C@H]3[C@@H](C[C@H]4O[C@]45CC=CC(=O)[C@]35C)[C@]1(O)CC[C@@]2(O)[C@@](C)(O)[C@H]1CC(C)=C(C)C(=O)O1 | 0.8 | 0.02 | > 3.1 | 2.6 | 0.09 | 0.21 | Tmax [11]: 15 min; Drug uptake [12]: Active; Activity [13]: Non-toxic; Drug uptake [14]: Active; TGI [15]: Active; Drug uptake [16]: Not Active; MTD [17]: 25 mg/kg; TGI [18]: Active; TGI [19]: Dose-dependent effect; Activity [20]: Non-toxic; TGI [21]: Dose-dependent effect
 |  |  | CC1=C(CO)C(=O)O[C@@H]([C@@H](C)[C@H]2CC[C@H]3[C@@H]4C[C@H]5O[C@]56[C@@H](O)C=CC(=O)[C@]6(C)[C@H]4CC[C@]23C)C1 [WITHAFERIN A] | < 0.4 | 0.87 | > 6.8 | < 0.4 | 0.41 | 0.57 | 
 |  |  | CC(=O)OC[C@]12CC[C@H]3[C@@H](C[C@@H]4O[C@@]45CC=CC(=O)[C@]35C)[C@]1(O)CC[C@@]2(O)[C@@](C)(O)[C@H]1CC(C)=C(C)C(=O)O1 | 2.1 | 0.32 | > 12 | > 5 | 1.2 | 1.2 | 

Compound | IC50 [4] [µM] | IC50 [7] [µM] | IC50 [8] [µM] | IC50 [1] [µM] | IC50 [2] [µM] | IC50 [3] [µM] | IC50 [5] [µM] | IC50 [6] [µM] | IC50 [9] [µM] | also measured
CC(=O)OC[C@]12CC[C@H]3[C@@H](CC=C4CC=CC(=O)[C@@]43C)[C@]1(O)CC[C@@]2(O)[C@@](C)(O)[C@H]1CC(C)=C(C)C(=O)O1 | 0.75 | 0.58 | 0.77 | 1.2 | 0.07 | > 3.1 | 3.4 | 0.13 | 1.9 | MTD at 18 days [22]: 50 mg/kg; inhibition [23]: inactive; inhibition in vivo at 50 mg/kg [24]: 66%

Reference: ChEMBL document CHEMBL3603831, “Discovery of Potent 17β-Hydroxywithanolides for Castration-Resistant Prostate Cancer by High-Throughput Screening of a Natural Products Library for Androgen-Induced Gene Expression Inhibitors” (J Med Chem, 2015)
